US10302653B2, “Distinguishing antagonistic and agonistic anti B7-H1 antibodies” (Mayo Foundation for Medical Education and Research, priority 2014, dated 2019)

What was measured:
DNA-PKcs = target: T1, DNA-PKcs (Mus musculus, UniProt P97313); assay: p38 MAPK activation in pre-activated WT and B7-H1 KO T cells cultured with DNA-PKcs inhibitor; assay type: cell-based
T1 construct: endogenous in cells
Experimental: NU7026 (2-(morpholin-4-yl)-benzo[h]chomen-4-one) is a DNA-PKcs inhibitor. […] NU7026 is added into cultures with pre-activated WT and B7-H1 KO T cells and after 24-72 hours of incubation, the activation of p38 is measured in the cells. As a consequence of p38 MAPK activation regulated by NU7026, the level of Bcl-xL also is measured in the T cells after treatment with NU7026. If p38 activation is regulated by DNA-PKcs, changes in p38 activation in the presence of NU7026 would be observed in WT T cells. If B7-H1 requires DNA-PKcs to regulate activation of p38 MAPK, NU7026 would induce significant changes in p38 MAPK activation in WT T cells, but not in B7-H1 KO T cells. […] Bcl-xL levels would change accordingly with the changes in p38 MAPK activation. In addition to inhibition of DNA-PKcs activity by NU7026, the impact of total DNA-PKcs protein levels on p38 MAPK activation is evaluated. siRNA-mediated knockdown of DNA-PKcs is known to result in reduced ERK activation in mouse macrophages (Yotsumoto et al., supra). Using a similar approach, experiments are conducted to test whether down-regulation of DNA-PKcs in T cells affects p38 MAPK activation in WT and B7-H1 KO T cells. Preliminary data predicts a potential link between DNA-PK and activation of p38 MAPK. […]

DNA-PK = DNA-PK (Homo sapiens, UniProt P78527); conditions: 10 μM; cited from earlier work

T1 sequence (P97313 whole entry): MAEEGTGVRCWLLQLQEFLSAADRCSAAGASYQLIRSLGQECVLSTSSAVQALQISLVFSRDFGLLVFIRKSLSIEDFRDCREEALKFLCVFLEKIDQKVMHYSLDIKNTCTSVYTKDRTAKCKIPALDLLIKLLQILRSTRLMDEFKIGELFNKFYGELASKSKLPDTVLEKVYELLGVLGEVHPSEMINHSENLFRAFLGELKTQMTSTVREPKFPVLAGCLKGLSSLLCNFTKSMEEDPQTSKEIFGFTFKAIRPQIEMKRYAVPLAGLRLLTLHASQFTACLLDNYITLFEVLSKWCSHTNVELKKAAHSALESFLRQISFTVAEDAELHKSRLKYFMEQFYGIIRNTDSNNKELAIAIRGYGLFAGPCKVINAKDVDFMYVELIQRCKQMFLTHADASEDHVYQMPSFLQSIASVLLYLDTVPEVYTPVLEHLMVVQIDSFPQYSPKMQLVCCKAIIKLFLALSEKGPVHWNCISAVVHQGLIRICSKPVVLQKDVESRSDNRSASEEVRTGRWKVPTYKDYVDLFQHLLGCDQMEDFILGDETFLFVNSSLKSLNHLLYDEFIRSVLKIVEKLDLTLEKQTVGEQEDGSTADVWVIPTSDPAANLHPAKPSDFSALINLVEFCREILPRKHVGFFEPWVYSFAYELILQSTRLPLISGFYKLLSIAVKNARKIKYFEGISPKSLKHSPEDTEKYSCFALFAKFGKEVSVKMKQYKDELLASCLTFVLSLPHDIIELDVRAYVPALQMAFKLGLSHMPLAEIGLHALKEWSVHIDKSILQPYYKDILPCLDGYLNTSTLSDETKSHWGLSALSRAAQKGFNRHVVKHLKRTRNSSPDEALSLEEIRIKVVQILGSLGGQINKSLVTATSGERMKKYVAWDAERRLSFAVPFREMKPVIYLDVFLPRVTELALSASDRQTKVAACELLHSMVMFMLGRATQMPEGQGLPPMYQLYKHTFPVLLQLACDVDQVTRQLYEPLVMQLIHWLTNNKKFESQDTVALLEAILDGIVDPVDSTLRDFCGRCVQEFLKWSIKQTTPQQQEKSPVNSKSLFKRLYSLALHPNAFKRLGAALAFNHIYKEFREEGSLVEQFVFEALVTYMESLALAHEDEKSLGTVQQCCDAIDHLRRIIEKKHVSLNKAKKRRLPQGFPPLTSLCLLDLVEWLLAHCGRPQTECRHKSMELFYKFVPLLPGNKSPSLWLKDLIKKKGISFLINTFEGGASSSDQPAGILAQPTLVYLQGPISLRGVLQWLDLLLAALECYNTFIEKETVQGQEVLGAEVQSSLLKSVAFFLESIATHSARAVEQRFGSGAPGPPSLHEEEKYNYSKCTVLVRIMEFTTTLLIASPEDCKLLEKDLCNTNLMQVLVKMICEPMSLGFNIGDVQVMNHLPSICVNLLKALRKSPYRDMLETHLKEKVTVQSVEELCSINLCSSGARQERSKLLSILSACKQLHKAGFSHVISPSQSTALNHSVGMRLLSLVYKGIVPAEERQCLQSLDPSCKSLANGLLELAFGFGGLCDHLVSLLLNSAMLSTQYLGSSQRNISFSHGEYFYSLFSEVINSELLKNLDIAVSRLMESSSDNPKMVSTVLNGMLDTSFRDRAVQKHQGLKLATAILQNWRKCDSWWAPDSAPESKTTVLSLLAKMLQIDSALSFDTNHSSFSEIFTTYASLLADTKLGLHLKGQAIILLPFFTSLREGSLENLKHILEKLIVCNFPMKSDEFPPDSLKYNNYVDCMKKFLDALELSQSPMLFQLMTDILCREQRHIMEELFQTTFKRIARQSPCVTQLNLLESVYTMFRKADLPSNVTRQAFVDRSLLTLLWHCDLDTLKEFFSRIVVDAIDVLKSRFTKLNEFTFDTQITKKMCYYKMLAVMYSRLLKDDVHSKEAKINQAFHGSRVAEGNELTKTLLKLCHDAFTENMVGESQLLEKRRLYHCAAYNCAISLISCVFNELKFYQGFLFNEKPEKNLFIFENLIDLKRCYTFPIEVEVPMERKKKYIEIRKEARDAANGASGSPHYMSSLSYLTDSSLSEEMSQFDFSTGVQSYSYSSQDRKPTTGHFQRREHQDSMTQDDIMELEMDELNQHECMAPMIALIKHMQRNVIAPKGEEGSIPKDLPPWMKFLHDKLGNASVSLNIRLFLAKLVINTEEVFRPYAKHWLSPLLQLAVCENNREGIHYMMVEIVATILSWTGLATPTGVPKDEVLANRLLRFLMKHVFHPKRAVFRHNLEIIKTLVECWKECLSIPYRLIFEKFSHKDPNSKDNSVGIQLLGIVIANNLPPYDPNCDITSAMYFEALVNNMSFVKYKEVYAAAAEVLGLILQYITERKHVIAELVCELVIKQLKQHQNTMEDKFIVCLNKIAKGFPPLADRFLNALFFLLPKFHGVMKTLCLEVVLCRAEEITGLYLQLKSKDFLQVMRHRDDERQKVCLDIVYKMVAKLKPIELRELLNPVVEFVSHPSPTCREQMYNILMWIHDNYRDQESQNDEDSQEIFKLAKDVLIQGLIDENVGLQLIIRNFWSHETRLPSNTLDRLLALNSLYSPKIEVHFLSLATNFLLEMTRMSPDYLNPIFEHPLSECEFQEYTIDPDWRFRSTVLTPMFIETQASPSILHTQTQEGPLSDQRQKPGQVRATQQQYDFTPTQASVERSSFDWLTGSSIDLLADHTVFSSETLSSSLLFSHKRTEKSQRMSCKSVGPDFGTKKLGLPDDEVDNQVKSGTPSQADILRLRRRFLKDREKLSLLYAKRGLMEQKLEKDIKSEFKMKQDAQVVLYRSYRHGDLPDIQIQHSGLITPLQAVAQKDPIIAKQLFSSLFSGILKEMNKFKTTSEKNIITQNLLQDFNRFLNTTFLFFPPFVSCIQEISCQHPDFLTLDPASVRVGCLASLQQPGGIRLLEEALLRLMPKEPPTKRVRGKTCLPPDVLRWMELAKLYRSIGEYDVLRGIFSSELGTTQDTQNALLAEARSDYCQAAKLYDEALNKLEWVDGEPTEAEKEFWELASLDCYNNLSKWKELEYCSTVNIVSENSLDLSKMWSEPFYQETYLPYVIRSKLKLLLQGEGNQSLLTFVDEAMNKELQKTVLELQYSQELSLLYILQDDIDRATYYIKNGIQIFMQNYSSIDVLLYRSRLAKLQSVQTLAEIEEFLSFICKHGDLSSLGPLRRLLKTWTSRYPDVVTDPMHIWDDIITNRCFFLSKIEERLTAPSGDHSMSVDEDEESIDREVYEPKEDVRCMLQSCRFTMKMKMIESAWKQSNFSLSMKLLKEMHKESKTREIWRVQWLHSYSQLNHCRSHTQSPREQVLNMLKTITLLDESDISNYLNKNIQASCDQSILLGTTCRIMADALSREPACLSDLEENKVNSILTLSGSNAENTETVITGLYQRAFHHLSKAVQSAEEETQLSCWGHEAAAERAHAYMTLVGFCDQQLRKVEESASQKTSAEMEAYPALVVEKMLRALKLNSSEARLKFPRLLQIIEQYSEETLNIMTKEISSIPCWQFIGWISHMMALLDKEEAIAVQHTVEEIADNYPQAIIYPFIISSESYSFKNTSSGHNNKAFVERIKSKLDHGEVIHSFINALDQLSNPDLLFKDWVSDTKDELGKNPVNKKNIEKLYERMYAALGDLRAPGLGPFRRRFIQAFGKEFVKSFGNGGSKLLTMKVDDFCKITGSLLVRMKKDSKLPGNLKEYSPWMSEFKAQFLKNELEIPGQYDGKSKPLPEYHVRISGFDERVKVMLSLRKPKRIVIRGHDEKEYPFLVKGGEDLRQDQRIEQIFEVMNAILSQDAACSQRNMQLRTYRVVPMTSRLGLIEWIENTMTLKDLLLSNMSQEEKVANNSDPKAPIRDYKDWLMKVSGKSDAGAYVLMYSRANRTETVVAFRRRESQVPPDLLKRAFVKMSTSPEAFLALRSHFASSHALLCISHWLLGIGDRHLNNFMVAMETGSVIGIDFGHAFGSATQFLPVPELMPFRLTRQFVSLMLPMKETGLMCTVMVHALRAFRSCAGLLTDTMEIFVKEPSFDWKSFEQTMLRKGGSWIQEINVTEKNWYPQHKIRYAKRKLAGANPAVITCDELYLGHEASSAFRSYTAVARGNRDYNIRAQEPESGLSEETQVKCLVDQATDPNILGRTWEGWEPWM

## O=c1cc(N2CCOCC2)oc2c1ccc1ccccc12 [NU7026, 2-(morpholin-4-yl)-benzo[h]chomen-4-one]
DNA-PKcs
  p38 MAPK activation in WT T cells: increased
DNA-PK
  inhibition of activity of purified DNA-PK: completely inhibit
